{
  "source": "patent US5663165A",
  "about": "“Hypolipidaemic benzothiazepine compounds” (Glaxo Wellcome Inc., priority 1992, dated 1997)",
  "test_system": "sodium-dependent 3H taurocholate uptake in rat distal ileal brush border membrane vesicles",
  "assay": "In vitro inhibition of bile acid uptake",
  "type": "biochemical",
  "details": "10 μM 3H taurocholate, 30 seconds at 24° C., active (sodium-dependent) uptake vs control",
  "description": "In vitro inhibition of bile acid uptake\nFreshly prepared rat distal ileal brush border membrane vesicles (about […] vesicle protein) were incubated for 30 seconds at 24° C. in an incubation mixture comprising 10 μM ^3 H taurocholate, 100 mM NaCl (or KCl) and 80 mM mannitol in 20 mM Hepes Tris pH 7.4. Each test compound was dissolved in ethanol (or water) and then diluted with incubation mixture to an ethanol concentration of not more than 1% v/v. The incubation was terminated by rapid dilution and filtration and the filter washed with an ice-cold isotonic sodium-free buffer.\nThe uptake of ^3 H taurocholate was measured by the radioactivity remaining on the filter and converted to pmoles/mg vesicle protein. The active, ie sodium-dependent, uptake was obtained by subtracting the passive uptake measured in 100 mM KCl from the total uptake measured in 100 mM NaCl. The active uptake for each test compound was compared with a control active uptake and the results expressed at % inhibition of bile acid uptake.",
  "data": [
    {"smiles": "CCCC[C@]1(CC)CS(=O)(=O)c2ccccc2[C@@H](c2ccccc2)N1", "note": "[Synthetic Example 1, (-)-(RR)-3-butyl-3-ethyl-2,3,4,5-tetrahydro-5-phenyl-1,4-benzothiazepine-1,1-dioxide]", "values": [
      {"measurement": "% inhibition of bile acid uptake", "setting": "0.3 μM test compound", "value": 55, "unit": "%"},
      {"measurement": "% inhibition of bile acid uptake", "setting": "1 μM test compound", "value": 69, "unit": "%"},
      {"measurement": "% inhibition of bile acid uptake", "setting": "3 μM test compound", "value": 85, "unit": "%"},
      {"measurement": "% inhibition of bile acid uptake", "setting": "10 μM test compound", "value": 96, "unit": "%"}
    ]}
  ]
}
